The nature of series [1]: In vivo "pharmacokinetic" analysis of αCT11 in plasma after tail vein injection. Also on record: species or system rat. Particulars: tail vein injection to 100 μM in blood, LC-MS/MS, n = 3. On the procedure: A second group of rats (only male) was not subjected to MI but injected (via the tail vein) with the same concentration of αCT11 as described in the Rat Model of I/R MI and Tail Vein Injection of αCT11 section. After injection, about 250–350 μL of blood was withdrawn at 1, 5, and 10 min following administration and transferred into an anticlotting tube containing heparin. Plasma was then separated at 4 °C and 2000g for 10 min using an Eppendorf Centrifuge 5810R (Eppendorf North America, Framingham, MA) and stored at −80 °C or used immediately for liquid chromatography tandem mass spectrometry (LC/MS-MS; described in the Prepreparation and Measurements of Plasma Containing αCT11 for LC/MS-MS Analysis section).
Plasma samples collected from either in vivo (see the In Vivo “Pharmacokinetic” Analysis of αCT11 section) or ex vivo (see the Ex Vivo Degradation Analysis of αCT11 in Rat Plasma section) groups were processed in the same way outlined here, according to the modified protocol from a previous publication.[36] Briefly, 100 μL of plasma was added to a 0.5 mL low-adhesion microcentrifuge tube containing 4% FA in 200 μL of ACN [see Table S1]. […] The samples were either stored at 4 °C up to 4 weeks (see the Results section) or analyzed immediately using a Waters H-Class UPLC mass spectrometer (Milford, MA) and its accompanying MassLynx software, version 4.2 (Milford, MA). […]

Series [2] in a line: Ex vivo degradation of αCT11 in isolated rat plasma. The class given is in vitro ADME. To be noted: for remaining at 5 min, 100 μM: 100 μM αCT11, 5 min. The source says:
A third group of rats (including both males and females) was not subjected to either MI or the tail vein injection of αCT11. Instead, after injection of heparin (300 U/mL blood, the total units of heparin were estimated from body weight of each rat), as much blood as possible was collected under deep anesthesia via a cardiac puncture with a 21G needle connected to a syringe containing heparin. Blood was then transferred into an anticlotting tube on ice, followed by plasma separation as described above. All plasma collected from either males or females were randomly sorted into 4 groups (G) per gender [G1: 22 °C; G2: 37 °C, G3: 22 °C + inhibitor cocktail and G4: 37 °C + inhibitor cocktail] and incubated at 22 °C [in an Eppendorf thermomixer (Eppendorf North America, Framingham, MA)] or at 37 °C [in a digital dry bath (Benchmark, Sayreville, NJ)] with or without additions of αCT11 (at a final concentration of 100 μM in each tube) in the presence or absence of a PTase/PPTase inhibitor cocktail (at a final concentration of 1.5× of the original concentration). It took less than ∼30 s for the 22 °C groups to reach 22 °C and ∼75 s for the 37 °C groups to reach 37 °C. […], 100 μL of plasma was taken in triplicate from the tube of each animal at 0, 5, 30, and 60 min following additions of αCT11 and the cocktail inhibitors (if applied). The collected samples were then transferred to new tubes for further preparation prior to LC/MS-MS analysis.
Plasma samples collected from either in vivo (see the In Vivo “Pharmacokinetic” Analysis of αCT11 section) or ex vivo (see the Ex Vivo Degradation Analysis of αCT11 in Rat Plasma section) groups were processed in the same way outlined here, according to the modified protocol from a previous publication.[36] Briefly, 100 μL of plasma was added to a 0.5 mL low-adhesion microcentrifuge tube containing 4% FA in 200 μL of ACN [see Table S1]. The tubes were slightly (∼1 min) vortexed and centrifuged for 5 min at 11,332g using an Eppendorf Centrifuge 5424R (Eppendorf North America, Framingham, MA) to recover the supernatants. 100 μL of the supernatant was then combined with 100 μL of deionized H2O in 2 mL amber autovials with a low-volume insert and capped. The samples were either stored at 4 °C up to 4 weeks (see the Results section) or analyzed immediately using a Waters H-Class UPLC mass spectrometer (Milford, MA) and its accompanying MassLynx software, version 4.2 (Milford, MA).
For measurement, the sample extracts were first separated chromatographically with an HSS T3 column and matching VanGurd column at 40 °C. A 4 μL sample was injected onto the column using a refrigerated autosampler at 5 °C. Mobile phase A was comprised of 1% FA in H2O and mobile phase B was comprised of 1% FA in ACN (Table S1). The mobile phase was delivered to the column at a flow rate of 0.4 mL/min. Tuning was performed on each analyte by direct infusion of a standard solution (0.1 ng/μL) at a rate of 10 μL/min. The parent and production transitions for αCT11 peptide are shown in Table S2, while the mass spectrometry parameters used for detecting αCT11 are listed in Table S3.
Data were collected at 0 min in triplicate from each group using LC/MS-MS and were first calibrated as 100%; all other data from the same group were then normalized as % change over the data at 0 min. A Student’s t-test was used for comparison of 2 groups, while 1- or 2-way ANOVA followed by Tukey’s test was used for comparisons of ≥3 groups with 1 or 2 factors. All data were expressed as mean ± standard error (SE), if not otherwise specified, with p < 0.05 considered statistically significant. Data were analyzed and plotted using GraphPad Prism 9.3.1 (San Diego, CA) and Microsoft 2019 MS Excel (Redmond, WA).

Series [3] is described as follows: Storage stability at 4 °C of plasma samples prepared for mass spectrum analysis. The class given is physicochemical. To be noted: mass spectrum samples from male rat plasma. On the procedure:
Plasma samples collected from either in vivo (see the In Vivo “Pharmacokinetic” Analysis of αCT11 section) or ex vivo (see the Ex Vivo Degradation Analysis of αCT11 in Rat Plasma section) groups were processed in the same way outlined here, according to the modified protocol from a previous publication.[36] Briefly, 100 μL of plasma was added to a 0.5 mL low-adhesion microcentrifuge tube containing 4% FA in 200 μL of ACN [see Table S1]. The tubes were slightly (∼1 min) vortexed and centrifuged for 5 min at 11,332g using an Eppendorf Centrifuge 5424R (Eppendorf North America, Framingham, MA) to recover the supernatants. 100 μL of the supernatant was then combined with 100 μL of deionized H2O in 2 mL amber autovials with a low-volume insert and capped. The samples were either stored at 4 °C up to 4 weeks (see the Results section) or analyzed immediately using a Waters H-Class UPLC mass spectrometer (Milford, MA) and its accompanying MassLynx software, version 4.2 (Milford, MA). […]
Following the initial measurements at Week 0 (i.e., Day 0 when fresh plasma was isolated and αCT11 concentrations were measured at 0 min at 22 °C and 37 °C), the same samples used in each conduction were stored at 4 °C for 1 week (A), 4 weeks (B), or 6 weeks (C) before being used again to measure the peptide concentrations. […]

Where two headings read alike, the source gives them in different places. Residues, ends and D or L forms follow the SMILES beside them. *: point of attachment. Biotin = O=C1N[C@H]2[C@H](CS[C@H]2CCCCC(=O)*)N1; Ahx = NCCCCCC(=O)O

The text below walks through data of article PMC11091968, “Degradation of the α-Carboxyl Terminus 11 Peptide: In Vivo and Ex Vivo Impacts of Time, Temperature, Inhibitors, and Gender in Rat” (ACS Pharmacology & Translational Science, 2024).

Take `CC[C@H](C)[C@H](NC(=O)[C@H](CCC(=O)O)NC(=O)[C@H](CC(C)C)NC(=O)[C@H](CC(=O)O)NC(=O)[C@H](CC(=O)O)NC(=O)[C@@H]1CCCN1C(=O)[C@H](CCCNC(=N)N)NC(=O)[C@@H]1CCCN1C(=O)[C@H](CCCNC(=N)N)NC(=O)CCCCCNC(=O)CCCC[C@@H]1SC[C@@H]2NC(=O)N[C@@H]21)C(=O)O` [αCT11] ({Biotin-Ahx}-RPRPDDLEI-OH): the “reduction of the initial αCT11 concentration in plasma” value in series [1] (male rats without MI, about 5 min postinjection) is approximately 53%. The “αCT11 in blood plasma 10 min after tail vein injection” value in series [1] (male rats, 10 min postinjection) is listed as “almost undetectable”. The remaining at 5 min, 100 μM in series [2] (isolated heparinised female rat plasma, 22 °C, with 1.5× PTase/PPTase inhibitor cocktail, LC-MS/MS, mean ± SE, n = 3 rats, read-out: percentage of αCT11 (normalized to 0 min)) stood at 80.9 ± 3.7%; in series [2] (isolated heparinised female rat plasma, 37 °C, no inhibitors, LC-MS/MS, mean ± SE, n = 3 rats (9 replicates), read-out: αCT11 level, % of starting concentration (0 min)) it was 51.4 ± 3.5%; in series [2] (isolated heparinised male rat plasma, 37 °C, no inhibitors, LC-MS/MS, mean ± SE, n = 3 rats (9 replicates), read-out: αCT11 level, % of starting concentration (0 min)) it was 61.9 ± 5.7%. Also, the remaining at 1 h, 100 μM worked out at 13.2 ± 3.3% in series [2] (isolated heparinised female rat plasma, 22 °C, with 1.5× PTase/PPTase inhibitor cocktail, 100 μM αCT11, 60 min, LC-MS/MS, mean ± SE, n = 3 rats, read-out: percentage of αCT11 (normalized to 0 min)); 0.1 ± 0.03% in series [2] (isolated heparinised female rat plasma, 37 °C, no inhibitors, 100 μM αCT11, 60 min, LC-MS/MS, mean ± SE, n = 3 rats (9 replicates), read-out: αCT11 level, % of starting concentration (0 min)); 19.1 ± 2.7% in series [2] (isolated heparinised male rat plasma, 22 °C, with 1.5× PTase/PPTase inhibitor cocktail, 100 μM αCT11, 60 min, LC-MS/MS, mean ± SE, n = 3 rats, read-out: percentage of αCT11 (normalized to 0 min)); 0.04 ± 0.06% in series [2] (isolated heparinised male rat plasma, 37 °C, no inhibitors, 100 μM αCT11, 60 min, LC-MS/MS, mean ± SE, n = 3 rats (9 replicates), read-out: αCT11 level, % of starting concentration (0 min)). Also, the “αCT11 level, % of starting concentration (0 min)” value in series [2] (isolated heparinised female rat plasma, 37 °C, no inhibitors, 100 μM αCT11, 30 min, LC-MS/MS, mean ± SE, n = 3 rats (9 replicates)) is 1.6 ± 0.6%. Further, the remaining at 0.5 h, 100 μM amounted to 41.6 ± 3.3% in series [2] (isolated heparinised male rat plasma, 22 °C, with 1.5× PTase/PPTase inhibitor cocktail, 100 μM αCT11, 30 min, LC-MS/MS, mean ± SE, n = 3 rats, read-out: percentage of αCT11 (normalized to 0 min)) and 1.5 ± 1.2% in series [2] (isolated heparinised male rat plasma, 37 °C, no inhibitors, 100 μM αCT11, 30 min, LC-MS/MS, mean ± SE, n = 3 rats (9 replicates), read-out: αCT11 level, % of starting concentration (0 min)). Also, the “αCT11 in isolated plasma by 30 min” value in series [2] (isolated rat plasma, 22 and 37 °C, no inhibitors, 30 min, LC-MS/MS) is reported as “nearly undetectable”. In addition, the “αCT11 concentrations, male vs female rat plasma” value in series [2] (isolated rat plasma, 22 or 37 °C, absence and presence of 1.5× inhibitors, any time point (0, 5, 30, 60 min), LC-MS/MS, n = 3) is “no significant differences”. Further, the “αCT11 in ex vivo plasma at 60 min” value in series [2] (isolated rat plasma, males and females, 22 °C, no inhibitors, 100 μM αCT11, 60 min, LC-MS/MS) is listed as “almost undetectable”. Besides, the “time for αCT11 concentration to decrease to 50% in ex vivo plasma” value in series [2] (isolated rat plasma, males and females, 22 °C, no inhibitors, 100 μM αCT11, LC-MS/MS) was “about 10 min”. For the same compound, in series [3], the “storage time at 4 °C without significant degradation of αCT11” value is on record as “up to 4 weeks”.
